Here are results for 65 compounds from a melting point compilation (Tetko et al.; mined from patent text by program, amines drawn as free bases though some values may be those of a salt).

`CN1CCC(C2Cc3ccccc3C(=O)N2)CC1` (stereo not given) gave a melting point of 139 to 141 °C.

For `Clc1ccc(C2(CCBr)OCC(c3ccc(Cl)cc3Cl)O2)cc1` (stereo not given), the melting point came out at 82.7 °C.

In turn, `CC(=O)OCCc1cc2c(s1)S(=O)(=O)CCc1cc(=O)n(-c3ccc(Cl)cc3)nc1-2` yielded a melting point of 137 to 140 °C.

`O=C(O)COc1ccc(-c2c3ccccc3cc3sc4cc(OCC(=O)O)ccc4c23)cc1` had a melting point of 220 to 222 °C.

Consider `CCNC(=O)Nc1ccc(C#Cc2ccc(N3CC4CCC(C3)N4C)nn2)cc1`, for which the melting point was 269 °C.

In the case of `CC(=O)Nc1ccccc1-c1ccn[nH]c1=O`, the melting point was in the range of 235 to 236 °C.

For the compound `Cc1c(C(=O)NCC(N)=O)cccc1-c1cccc2cc(Cc3cccc(C(F)(F)F)c3)sc12`, the melting point lay in the range of 124 to 125 °C.

For `COC(=O)C1(CCCN2CCN(c3ccccc3)CC2)Oc2ccccc2OCC1O` (stereo not given), the melting point is 113 to 115 °C.

For `OCCCNc1nc(-c2ccc(Cl)c(Cl)c2)nc2ccccc12`, the melting point was in the range of 164 to 166 °C.

For `C=CCOc1ccccc1S(=O)(=O)NC(=O)Nc1nc(C)cc(C)n1`, the melting point lay in the range of 199 to 200 °C.

Consider `COc1c(C(=O)O)sc(C(F)(F)F)c1SCc1ccccc1`, for which the melting point lay in the range of 146 to 147 °C.

In the case of `CCc1[nH]c(=S)n(Nc2cccc(Cl)c2)c1-c1ccccc1`, the melting point was in the range of 116 to 118 °C.

`CNS(=O)(=O)c1cn(C)c2c(OC)c(OC)c(OC)cc2c1=O`: the melting point lay in the range of 184 to 186 °C.

`COc1cccc(-c2c(=O)[nH]c3cc(Cl)c(Cl)cc3[n+]2[O-])c1` displayed a melting point of 238 to 240 °C.

Regarding `Cn1cc(-c2ccccc2)c(=O)c(-c2ccc(Cl)cc2)c1`, the melting point worked out at 142 °C.

In turn, `N#CC(C(=O)NC1CC1)C(=O)C1CC1` (stereo not given) had a melting point of 136 to 138 °C.

Consider `CN1C(=O)C(=Cc2ccc(O)c(C(C)(C)C)c2)SC1=S`, for which the melting point was above 230 °C.

Take `O=C(Cc1ccccc1)Nc1ccc(CN2C(=O)[C@H]3CCC[C@H]3N(C(=O)CN3C(=O)c4ccccc4C3=O)c3ccccc32)cc1` (relative stereo): the melting point lay within 143 to 145 °C.

Compound `OC1Cc2ccccc2Sc2cc(Cl)c(F)cc21` (stereo not given) gave a melting point of 86 to 87 °C.

Consider `CC1(C)COC(c2ccc3c(c2-c2c(C4=NC(C)(C)CO4)ccc4c2OCO4)OCO3)=N1`, for which the melting point lay in the range of 152 to 154 °C.

The compound `CCN1C(=O)Cc2cc3c(cc21)CCO3` gave a melting point of 106 to 107 °C.

Compound `O=C(CCCCOc1ccc(-c2ccc(F)cc2)cc1)NO` showed a melting point of 160 to 162 °C.

For `Cc1ccc(S(=O)(=O)C(C)(C)C(=O)C(C)C)cc1`, the melting point was in the range of 76 to 79 °C.

As for `OC(CNC1CC1)c1cccc(F)c1` (stereo not given), the melting point was 57.8 to 60 °C.

On to `N#Cc1c(N2CCc3ccccc3CC2)nc(CO)[nH]c1=O`, for which the melting point was in the range of 196 to 198 °C.

In the case of `CCCc1c(C(=O)C(C)C)c2ccc(NC=O)cc2n1Cc1ccccc1Cl`, the melting point is 113 to 115 °C.

Take `NS(=O)(=O)c1ccc(-n2nc(CCCNC(=O)Nc3ccc(Cl)cc3)cc2-c2ccccc2)cc1`: the melting point lay in the range of 103 to 110 °C.

`CC(O)(c1nc2ccc(I)cc2c(=O)[nH]1)C(F)(F)F` (stereo not given) had a melting point of 205 to 207 °C.

On to `CCCCC(CC)COC(=O)C(C#N)=C1C=C(C)N(CCCC)C(C)=C1` (stereo not given), for which the melting point fell in the range of 69 to 70 °C.

As to `O=C(O)c1cccc(-n2nnnc2S)c1`, the melting point was 181 to 182 °C.

As for `Clc1ccccc1-c1n[nH]c(-c2ccccc2Cl)n1`, the melting point lay in the range of 159 to 160 °C.

The compound `O=C(Nc1ccc(S(=O)(=O)C[N+](=O)[O-])cc1)c1ccccc1` came in with a melting point of 211 to 212 °C.

The compound `CN(C)c1ccc(S(=O)(=O)N2CCCCC2=O)cc1` yielded a melting point of 165 to 170 °C.

Compound `O=C(O)c1ccc(COCc2csc3nc(C(=O)NCc4cccnc4)[nH]c(=O)c23)cc1` registered a melting point of 309 to 311 °C.

As to `O=C(CSc1nc2ccccc2[nH]1)c1ccc(Br)cc1`, the melting point lay within 241 to 245 °C.

`c1ccc2[nH]c(C34CC5CC(CC(C5)C3)C4)cc2c1` registered a melting point of 48 °C.

In the case of `CC(C)c1nc(COCc2ccccc2)n(CF)c1Sc1cc(Cl)cc(Cl)c1`, the melting point fell in the range of 115 to 117 °C.

As to `O=c1c2ccccc2oc2cc(OCC3CO3)cc(O)c12` (stereo not given), the melting point came to 197 °C.

`CN1CCC23c4cccc(O)c4OC2C2CCC3(CC2)C1` (stereo not given) registered a melting point of 174 to 176 °C.

`COC(=O)c1cc(OC)ccc1Oc1cc(Cl)ccc1[N+](=O)[O-]`: the melting point fell in the range of 114 to 116 °C.

The compound `CCOC(=O)CN(CCN(CCN1CC(=O)OC(=O)C1)CC(=O)O)CC(=O)O` displayed a melting point of 195 to 196 °C.

`Cc1cccc(C)c1NC(=O)c1ccc(S(C)=O)cc1` (stereo not given): the melting point was in the range of 144 to 146 °C.

As for `Cc1ccc2oc(NC(CN3CCN(Cc4ccc(Cl)c(Cl)c4)CC3)C(C)C)nc2c1` (stereo not given), the melting point lay within 155 to 157 °C.

Compound `COc1cc2c(cc1OCc1ccccc1)CCN(C(=O)c1cc(OC)c(OC)c(OC)c1)C2=O` displayed a melting point of 195 to 196 °C.

With `O=C1C(=Cc2ccc(F)cc2)C2C=CC1CC2` (stereo not given), the melting point was in the range of 85 to 86 °C.

`CCCc1c(OCC(O)COc2ccc3c(=O)cc(CCC(=O)OCC)oc3c2CCC)ccc(C(C)=O)c1O` (stereo not given) yielded a melting point of 137 to 138 °C.

`CC(CS)C(=O)Nc1cncc(C(=O)O)c1` (stereo not given) returned a melting point of 160 to 165 °C.

As to `CC(C)c1c(C(=O)c2cc(Cl)cc(Cl)c2)[nH]c(=O)[nH]c1=O`, the melting point fell in the range of 252 to 253 °C.

Take `CC(=O)N[C@@H](C)COc1cc(-c2nc3cc(OCC4CC4)ccc3o2)on1`: the melting point fell in the range of 156 to 157 °C.

`CCOC(=O)c1cc2c3cc(Br)ccc3ncn2c1`: the melting point was 183 to 185 °C.

As for `N#Cc1ccc(OCc2ccccc2)c(O)c1`, the melting point worked out at 101 °C.

`N#CC(=NNc1c(Cl)cc(C(F)(F)F)cc1Cl)c1ccc(C#N)cc1` showed a melting point of 186 to 187 °C.

Compound `CC(C)(C)c1cc(CCc2ccccc2NC(=O)NCc2ccncc2)cc(C(C)(C)C)c1O` showed a melting point of 214 to 215 °C.

Compound `Cc1c(C(=O)O)oc2cc(-c3ccc(Cn4c(C)nc5ccccc54)cc3)ccc12` showed a melting point of 295 to 297 °C.

With `CCOC(=O)C(=O)N(CCO)N=Cc1ccccc1`, the melting point lay in the range of 96 to 98 °C.

On to `CCc1nnc2ccc(-c3ccc(C(F)(F)F)cc3)nn12`, for which the melting point lay within 194 to 196 °C.

`CN(Cc1cc(C(=O)O)ccc1N)C1CCCCC1` registered a melting point of 200 to 205 °C.

The compound `CN(C)c1ccc(-c2nnc(N(C)C)nc2-c2ccc(N(C)C)cc2)cc1` displayed a melting point of 170 to 172 °C.

Compound `CCOCC1=C(C(=O)OCC)C(c2ccccc2Cl)C(C(=O)OCC)=C(C)N1` (stereo not given) registered a melting point of 115 °C.

For the compound `O=C(O)c1ccccc1CSc1ccc(Br)cc1`, the melting point fell in the range of 139 to 140 °C.

Regarding `O=S1(=O)CCC(c2ccc(N3CCN(CC(O)(Cn4cncn4)c4ccc(Cl)cc4Cl)CC3)cc2)CN1` (stereo not given), the melting point was 68 to 70 °C.

`CCN1CCNC(=O)C1c1ccc(Nc2nc(Br)cn(C)c2=O)cc1` (stereo not given) came in with a melting point of 152 to 153 °C.

`CCCCCCCC(=O)Nc1ccc2c(C(F)(F)F)cc(=O)oc2c1` returned a melting point of 137 °C.

In the case of `Nc1ccc(Br)cc1C(=O)NCCCn1ccnc1`, the melting point was in the range of 154 to 156 °C.

In turn, `COc1ccc(C(C#N)=C(C)C)cc1OC` came in with a melting point of 93 to 95 °C.

Broadly, the melting point is the temperature, or range, at which the solid turns liquid.
